Measurements: article PMC6050476, “Pre-clinical Pharmacokinetic and Metabolomic Analyses of Isorhapontigenin, a Dietary Resveratrol Derivative” (Frontiers in Pharmacology, 2018)

Columns and labels:
[1] = Stability of isorhapontigenin in rat plasma QC samples under different storage conditions; type: in vitro ADME, Sprague-Dawley rat; conditions: for Freeze thaw stability (% remaining): 3 cycles; for Post preparative stability (% remaining): 4 °C, 6 h; for Long term stability (% remaining): -80 °C, 14 days; for Short term stability (% remaining): on ice, 3 h
Protocol: Stock solutions of ISO were prepared by dissolution in DMSO and they were stored at room temperature. The stock solutions were further diluted using blank rat plasma to prepare the calibration standards and QC samples. The stock solution of IS was dissolved in acetonitrile to a concentration of 10 μg/mL. 100 μL IS solution was aliquoted into 1.5-mL polypropylene tubes for storage at −80°C. During sample preparation, this solution was further diluted to the working concentration of 10 ng/mL using acetonitrile containing 0.18 μM of disodium EDTA and stored at 4°C.
The calibration range was 1–1000 ng/mL. A simple protein precipitation procedure was used for sample cleanup prior to LC–MS/MS analysis ([Chen et al., 2015], [2016b]). Three volumes of 10 ng/mL IS working solution (^13C isotopically labeled resveratrol in acetonitrile–0.18 μM disodium EDTA) were added to one volume of plasma sample spiked with of L-ascorbic acid at a final concentration of 0.8 mg/mL. After vigorous vortex, centrifugation of samples was performed at 15,000 g for 10 min at 4°C. Subsequently, the clear supernatants were transferred into HPLC vials. During each LC–MS/MS analysis, 1 μL of supernatant was injected into the system.
The dilution integrity was confirmed using a dilution factor of 20. In the presence of L-ascorbic acid (0.8 mg/mL), ISO appeared to stable in plasma; similarly, addition of EDTA in IS acetonitrile solution (0.18 μM) enhanced the post-preparative stability. The details in accuracy, precision, stability, and matrix effect can be found in Supplementary Tables S1–S3.

[2] = Plasma pharmacokinetics of isorhapontigenin in Sprague-Dawley rats (LC–MS/MS); type: in vivo; conditions: rat
Protocol: This in vivo study was conducted with strict adherence to the “Guidelines on the Care and Use of Animals for Scientific Purposes” (Singapore). The pharmacokinetic study design and animal handling procedures were reviewed and approved by the Institutional Animal Care and Use Committee of the National University of Singapore (NUS; R15-1273). All animal experiments were carried out in a specific pathogen-free animal facility (temperature: 22 ± 1°C; humidity: 60–70%) in Comparative Medicine, NUS. Sprague-Dawley rats (male, 9–10 weeks old, weight: 300–350 g) were purchased from InVivos (Singapore). The rats were housed under a 12 h light–dark cycle with free access to food and water. On the day before the pharmacokinetic study, surgery was performed under isoflurane anesthesia and a catheter (polyethylene tube, i.d. = 0.580 mm, o.d. = 0.965 mm, Becton Dickinson, Sparks, MD, United States) was implanted into the right jugular vein. Intravenous ISO administration and blood collection were carried out via this cannula. To prevent cross-contamination and blood clotting, ∼0.3 mL heparin-saline (10 I.U./mL) was flushed through the cannula after intravenous dosing or each blood collection. This reliable pharmacokinetic model has been routinely used in our laboratory to assess the pharmacokinetic profiles of resveratrol and its derivatives ([Yeo et al., 2013a],[b], [2017]; [Choo et al., 2014]; [Chen et al., 2015], [2016b],[c]; [Dai et al., 2018]).
0.3 M HP-β-CD was used to formulate ISO into a solution for intravenous injection while 0.3% CMC (w/v) was applied as a suspending vehicle for oral delivery ([Yeo et al., 2017]). To enhance the stability of ISO, L-ascorbic acid (final concentration: 0.1 mg/mL) was spiked into both intravenous and oral formulations ([Yeo et al., 2017]). The concentrations of ISO in intravenous and oral formulations were 5 and 13.3 mg/mL, respectively.
Twenty-two rats were divided into four groups. Group 1 (n = 5) received a single bolus intravenous injection of ISO at the dose of 90 μmol/kg (23.2 mg/kg). Serial blood samples were collected before dosing and at 5, 15, 30, 60, 90, 120, 180, 240, 300, 420, 540, and 720 min after intravenous injection. Group 2 (n = 5) received a single oral administration of ISO at the dose of 200 μmol/kg (51.6 mg/kg). Serial blood samples were collected before dosing and at 15, 30, 45, 60, 90, 120, 180, 240, 300, 420, 540, and 720 min after oral gavage. Group 3 (n = 5) received daily oral pre-treatment of oral dosing vehicle (2 mL/kg) while Group 4 (n = 7) received daily oral pre-treatment of ISO at the dose of 100 μmol/kg (25.8 mg/kg) for 1 week. On day 7, ∼8–10 h after the last pre-treatment dose, surgery was performed on rats in Groups 3 and 4 for jugular vein cannulation, and blood samples were also collected from Groups 3 and 4 for metabolomic study. On day 8, the pharmacokinetic study was carried out on these two groups of animals at the dose of 100 μmol/kg (25.8 mg/kg) using the same blood sampling schedule as Group 2.
All blood samples during the pharmacokinetic study were collected in heparinized tubes containing L-ascorbic acid (final concentration = 0.8 mg/mL) to ensure stability of ISO ([Yeo et al., 2017]). The samples were centrifuged at 5000 g for 5 min, and the plasma was harvested and stored at −40°C until LC–MS/MS analysis.
The LC–MS/MS analysis was carried out using an Agilent 1290 Infinity Liquid Chromatography system (Agilent Technologies, Santa Clara, CA, United States), which is coupled to an ABSciex QTRAP® 5500 mass spectrometer (AB Sciex, Framingham, MA, United States) and equipped with a TurboIon Spray probe (AB Sciex). The LC–MS/MS system was controlled by the Analyst 1.5.2 software (AB Sciex) and chromatographic data analysis was performed using the same software. […]

[3] = Group 1, single intravenous 90 μmol/kg, HP–β–CD
[4] = Group 2, single oral 200 μmol/kg, suspension
[5] = Group 3, oral 100 μmol/kg after 1-week vehicle pre-treatment, suspension
[6] = Group 4, oral 100 μmol/kg after 1-week daily oral ISO 100 μmol/kg pre-treatment, suspension
[7] = male, Sprague-Dawley, plasma, po, 100 umol/kg, Group 3, oral 100 μmol/kg after 1-week vehicle pre-treatment, suspension
[8] = male, Sprague-Dawley, plasma, po, 100 umol/kg, Group 4, oral 100 μmol/kg after 1-week daily oral ISO 100 μmol/kg pre-treatment, suspension
[9] = male, Sprague-Dawley, plasma, po, 200 umol/kg, Group 2, single oral 200 μmol/kg, suspension
[10] = single intravenous 90 μmol/kg, resveratrol data ref Chen et al., 2016c
[11] = single oral 200 μmol/kg, resveratrol data ref Chen et al., 2016c

For `COc1cc(/C=C/c2cc(O)cc(O)c2)ccc1O` [isorhapontigenin, trans-3,5,4′-trihydroxy-3′-methoxystilbene], the “Freeze thaw stability (% remaining)” value ([1]; QC 2 ng/ml in rat plasma) was 98.4 ± 7.6 % remaining, the “Freeze thaw stability (% remaining)” value ([1]; QC 400 ng/ml in rat plasma) was 94.0 ± 2.4 % remaining and the “Freeze thaw stability (% remaining)” value ([1]; QC 800 ng/ml in rat plasma) was 92.3 ± 1.2 % remaining. The “Post preparative stability (% remaining)” value ([1]; QC 2 ng/ml) was 108.0 ± 6.1 % remaining, the “Post preparative stability (% remaining)” value ([1]; QC 400 ng/ml) was 108.0 ± 1.0 % remaining and the “Post preparative stability (% remaining)” value ([1]; QC 800 ng/ml) was 108.0 ± 4.1 % remaining. The “Long term stability (% remaining)” value ([1]; QC 2 ng/ml in rat plasma) was 87.9 ± 2.5 % remaining, the “Long term stability (% remaining)” value ([1]; QC 400 ng/ml in rat plasma) was 101.0 ± 3.0 % remaining and the “Long term stability (% remaining)” value ([1]; QC 800 ng/ml in rat plasma) was 97.0 ± 6.5 % remaining. The “Short term stability (% remaining)” value ([1]; QC 2 ng/ml in rat plasma) was 104.0 ± 6.0 % remaining, the “Short term stability (% remaining)” value ([1]; QC 400 ng/ml in rat plasma) was 102.0 ± 5.4 % remaining and the “Short term stability (% remaining)” value ([1]; QC 800 ng/ml in rat plasma) was 98.7 ± 6.4 % remaining. The “AUC0→last /Dose” value [2, 3] was 14.2 ± 5.2 kg⋅min/L, the V [2, 3] was 893 ± 103 mL/kg and the “AUC0→last /Dose” value [2, 4] was 4.28 ± 0.94 kg⋅min/L. For the same molecule, the “Cmax /Dose” value [2, 4] was 27.8 ± 3.2 g/L, the “AUC0→last /Dose” value [2, 5] was 2.54 ± 0.69 kg⋅min/L and the “Cmax /Dose” value [2, 5] was 29.2 ± 2.8 g/L. The “AUC0→last /Dose” value [2, 6] was 2.97 ± 0.80 kg⋅min/L, the “Cmax /Dose” value [2, 6] was 23.9 ± 6.2 g/L and the clearance ([2]; male, Sprague-Dawley, plasma, 90 umol/kg, Group 1, single intravenous 90 μmol/kg, HP–β–CD) was 76.8 ± 23.7 mL/min/kg. The Tmax ([2]; male, Sprague-Dawley, plasma, 100 umol/kg, Group 3, oral 100 μmol/kg after 1-week vehicle pre-treatment, suspension) was 15 min, the Tmax ([2]; male, Sprague-Dawley, plasma, 200 umol/kg, Group 2, single oral 200 μmol/kg, suspension) was 15 to 45 min and the MRT ([2]; male, Sprague-Dawley, plasma, iv, 90 umol/kg, Group 1, single intravenous 90 μmol/kg, HP–β–CD) was 0.313 h. The MRT [2, 7] was 2.27 h, the bioavailability [2, 7] was 17.9 ± 4.9% and the MRT [2, 8] was 3.03 h. It also gave a bioavailability [2, 8] of 20.8 ± 5.6%, an MRT [2, 9] of 3.07 h and a bioavailability [2, 9] of 30.1 ± 6.6%. The “CL relative to resveratrol” value [2, 10] was “comparable to resveratrol”, the “V relative to resveratrol” value [2, 10] was “comparable to resveratrol” and the “average MRT longer than resveratrol” value [2, 10] was roughly 70%. The “time ISO remained measurable in the systemic circulation after administration” value ([2]; single oral 100 μmol/kg) was “at least 12 h”, the “F relative to resveratrol” value [2, 11] was “two to three folds greater” and the “dose normalized AUC0→t (AUC0→t/Dose) relative to resveratrol” value [2, 11] was “two to three folds greater”. For the same molecule, the “dose normalized Cmax (Cmax/Dose) relative to resveratrol” value [2, 11] was “two to three folds greater”.
